The target in the test is D(2) dopamine receptor (Homo sapiens, UniProt P14416). The test is described as follows: ChEBML_61120. From the text:
Binding affinity for Dopamine receptor D2 by displacement of [3H]-spiperone

Our source for the Ki values is BindingDB's records for doi:10.1016/s0960-894x(00)00030-5 (Yoshitomi Pharmaceutical Industries, 2000).

D(2) dopamine receptor, sequence (P14416 whole entry): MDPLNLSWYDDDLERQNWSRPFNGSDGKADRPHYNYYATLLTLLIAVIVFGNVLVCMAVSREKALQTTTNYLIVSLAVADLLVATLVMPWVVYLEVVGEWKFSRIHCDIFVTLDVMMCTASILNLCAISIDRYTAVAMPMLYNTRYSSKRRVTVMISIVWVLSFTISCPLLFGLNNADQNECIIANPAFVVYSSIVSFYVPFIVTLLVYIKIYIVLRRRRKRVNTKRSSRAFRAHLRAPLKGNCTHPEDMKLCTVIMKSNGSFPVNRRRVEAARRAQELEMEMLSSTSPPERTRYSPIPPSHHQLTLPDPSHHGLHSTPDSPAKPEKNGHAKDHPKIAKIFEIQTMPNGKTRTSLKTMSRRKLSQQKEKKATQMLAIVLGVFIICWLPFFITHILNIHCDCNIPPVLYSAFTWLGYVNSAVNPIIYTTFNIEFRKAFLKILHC

Consider `CN1CCOc2c(C(=O)NC[C@@H]3CCCN3CCc3ccccc3)cc(Cl)cc21` [6-Chloro-4-methyl-3,4-dihydro-2H-benzo[1,4]oxazine-8-carboxylic acid ((S)-1-phenethyl-pyrrolidin-2-ylmethyl)-amide], for which the affinity corresponds to a Ki of 0.8 µM. As to `CN1CCOc2c(C(=O)NC[C@H]3CCCN3CCc3ccccc3)cc(Cl)cc21` [6-Chloro-4-methyl-3,4-dihydro-2H-benzo[1,4]oxazine-8-carboxylic acid ((R)-1-phenethyl-pyrrolidin-2-ylmethyl)-amide], the Ki (commonly a measure of affinity in units of concentration, obtained from inhibition or displacement) worked out at 0.057 µM.
